Data as given in article PMC3334918, “Mutagenesis and Functional Studies with Succinate Dehydrogenase Inhibitors in the Wheat Pathogen Mycosphaerella graminicola” (PLoS ONE, 2012).
Several values for one entry are separate records, joined by “and”; a condition that tells them apart may be missing. Equal entries are not always repeated.

Legend:
[1] = system: M. graminicola strain Bos59 (SDHB_H267Q); experiment: in vivo sensitivity, liquid culture growth (AE media); assay type: cell-based, Mycosphaerella graminicola; details: B_H267Q, ratio IC50mutant/IC50WT
Procedure: (§1) To explore the sensitivity profiles conferred by amino acid substitutions at the cellular and mitochondrial level, we determined sensitivity towards 4 different compounds for 26 of the identified substitution types both in vivo using liquid culture growth (AE media) and in vitro using purified mitochondria and the succinate: Q0/DCPIP activity test (Table 3). […] Resistance factors (RF) were determined as the ratio IC50mutant/IC50WT. […] Qp site mutations are well known to influence SDH enzyme activity and stability upon catalysis, [13], [38], [41].
(§2) Conidial cells were collected from 4 day old V8 agar plates (cultured at 18°C in the dark) using liquid AE and a cell spreader. Cell density was determined and cells re-suspended to a concentration of 5×10^5 cells ml^−1 in AE media. Sterile 96 wells microtiter plates with lids (Costar) were inoculated with 198 µl of this cell suspension (10^5 cells per well) and 2 µl of inhibitor (100× in DMSO). Final inhibitor concentrations were between 0.95 nM and 1 mM with uniform 4× dilution factor steps (11 inhibitor concentrations+1 DMSO control). Plates were incubated for 6 days at 19°C in the dark before cells were re-suspended and measured for growth (OD600 nm). IC50 values were determined by non linear curve fitting on the basis of measured OD values versus log inhibitor concentrations (GraphPad Prism 5.0 software).

[2] = system: M. graminicola strain Bos64 (SDHC_T79I); experiment: as above; assay type: cell-based, Mycosphaerella graminicola; details: C_T79I, ratio IC50mutant/IC50WT
Procedure: as §1, §2

[3] = system: M. graminicola strain Cbx1 (SDHB_I269V); experiment: as above; assay type: cell-based, Mycosphaerella graminicola; details: B_I269V, ratio IC50mutant/IC50WT
Procedure: as §1, §2

[4] = system: M. graminicola strain Cbx12 (SDHC_L85P); experiment: as above; assay type: cell-based, Mycosphaerella graminicola; details: C_L85P, ratio IC50mutant/IC50WT
Procedure: as §1, §2

[5] = system: M. graminicola strain Cbx22 (SDHD_D129E); experiment: as above; assay type: cell-based, Mycosphaerella graminicola; details: D_D129E, ratio IC50mutant/IC50WT
Procedure: as §1, §2

[6] = system: M. graminicola strain Cbx67 (SDHD_D129G); experiment: as above; assay type: cell-based, Mycosphaerella graminicola; details: D_D129G, ratio IC50mutant/IC50WT
Procedure: as §1, §2

[7] = system: M. graminicola strain Flu1 (SDHC_S83G); experiment: as above; assay type: cell-based, Mycosphaerella graminicola; details: C_S83G, ratio IC50mutant/IC50WT
Procedure: as §1, §2

[8] = system: M. graminicola strain Flu21 (SDHC_A84I); experiment: as above; assay type: cell-based, Mycosphaerella graminicola; details: C_A84I, ratio IC50mutant/IC50WT
Procedure: as §1, §2

[9] = system: M. graminicola strain Flu29 (SDHD_D129T); experiment: as above; assay type: cell-based, Mycosphaerella graminicola; details: D_D129T, ratio IC50mutant/IC50WT
Procedure: as §1, §2

[10] = system: M. graminicola strain Flu33 (SDHB_N271K); experiment: as above; assay type: cell-based, Mycosphaerella graminicola; details: B_N271K, ratio IC50mutant/IC50WT
Procedure: as §1, §2

[11] = system: M. graminicola strain Flu75 (SDHB_P220L); experiment: as above; assay type: cell-based, Mycosphaerella graminicola; details: B_P220L, ratio IC50mutant/IC50WT
Procedure: as §1, §2

[12] = system: M. graminicola strain Flu9 (SDHC_R87C); experiment: as above; assay type: cell-based, Mycosphaerella graminicola; details: C_R87C, ratio IC50mutant/IC50WT
Procedure: as §1, §2

[13] = system: SDH B_I269V (strain Cbx1); experiment: in vitro succinate: Q0/DCPIP activity test, purified mitochondria; assay type: biochemical, Mycosphaerella graminicola; details: ratio IC50mutant/IC50WT, single determination
Procedure: as §1
(§3) Strains were grown in 1 liter TSM40 units. Cultures were inoculated at 0.05 OD600 nm and grown on a reciprocal shaker (110 rpm, 22°C) for 5 days. Cells were harvested by vacuum filtration and disrupted in liquid nitrogen using a mortar and pestle. Resultant powder was re-suspended to 10% w/v in mitochondrial extraction buffer (10 mM KHPO4 pH7.2; 10 mM KCl, 10 mM MgCl2, 0.5 M sucrose, 0.2 mM EDTA, 2 mM PMSF). Extract was clarified by centrifugation (5,000 g, 4°C for 10 minutes, 2 times), intact mitochondria were then pelleted at 10,000 g for 20 minutes at 4°C. […] This volume was transferred to conical 1.5 ml tubes and re-centrifuged, 10,000 g for 10 minutes at 4°C. […] Mitochondrial suspensions were brought to a final concentration of 10 mg ml^−1 in extraction buffer and stored at −80°C until used.
(§4) Mitochondrial suspensions were incubated at 30°C for 30 minutes in extraction buffer supplemented with 10 mM succinate prior to enzymatic measurements.
(§5) A reaction plate was equilibrated for 10 minutes at 30°C before starting the reaction. DCPIP reduction was conducted at 30°C and monitored at 595 nm using a HTS7000 microtiterplate reader (Perkin Elmer). For calculations a molecular extinction coefficient of ε = 17 mM^−1 cm^−1 was used.
(§6) Inhibitor concentrations ranged between 1 mM and 0.95 nM with uniform 4× dilution factor steps (11 inhibitor concentrations+DMSO control). 96 wells plates were pre equilibrated at reaction temperature (30°C) for 10 minutes before the reactions were started by the addition of 5 µl preactivated M. graminicola mitochondrial suspension. Calculated absorbance slopes (OD/hour) were used for IC50 calculations using Graphpad Prism 5.0 software non linear curve fitting against log inhibitor concentrations.

[14] = system: SDH B_S218F (strain Flu41); experiment: as above; assay type: biochemical, Mycosphaerella graminicola; details: ratio IC50mutant/IC50WT, single determination
Procedure: as §1, §3, §4, §5, §6

SDH C_A84V (strain Flu4) = experiment: as above; assay type: biochemical, Mycosphaerella graminicola; details: ratio IC50mutant/IC50WT, single determination
Procedure: as §1, §3, §4, §5, §6

[15] = system: SDH C_H152R (strain Izm1); experiment: as above; assay type: biochemical, Mycosphaerella graminicola; details: ratio IC50mutant/IC50WT, single determination
Procedure: as §1, §3, §4, §5, §6

[16] = system: SDH C_L85P (strain Cbx12); experiment: as above; assay type: biochemical, Mycosphaerella graminicola; details: ratio IC50mutant/IC50WT, single determination
Procedure: as §1, §3, §4, §5, §6

SDH C_V88D (strain Ol50) = experiment: as above; assay type: biochemical, Mycosphaerella graminicola; details: ratio IC50mutant/IC50WT, single determination
Procedure: as §1, §3, §4, §5, §6

[17] = system: SDH D_D129G (strain Cbx67); experiment: as above; assay type: biochemical, Mycosphaerella graminicola; details: ratio IC50mutant/IC50WT, single determination
Procedure: as §1, §3, §4, §5, §6

[18] = system: wild type IPO323 M. graminicola strain; assay type: cell-based, Mycosphaerella graminicola; details: minimal concentration to fully inhibit growth of WT IPO323, AE agar, 10^7 cells, 2 weeks at 20°C in the dark
Excerpt: Selection plates were produced after adding 1% of a 100× DMSO solution of the active ingredients to pre-melted AE-agar.

CC(C)C1C2CCC1c1c(NC(=O)c3cn(C)nc3C(F)F)cccc12 (centres unmarked) [Isopyrazam]
Resistance Factors (RFs) in vivo [1]: 12.5 | Resistance Factors (RFs) in vivo [2]: 15.8 | Resistance Factors (RFs) in vivo [3]: 5.0 | Resistance Factors (RFs) in vivo [4]: 10.0 | Resistance Factors (RFs) in vivo [5]: 6.8 | Resistance Factors (RFs) in vivo [6]: 22.9 | Resistance Factors (RFs) in vivo [7]: 61.2 | Resistance Factors (RFs) in vivo [8]: 8.8 | Resistance Factors (RFs) in vivo [9]: 33 and 33.5 | Resistance Factors (RFs) in vivo [10]: 5.7 | Resistance Factors (RFs) in vivo [11]: 4.8 | Resistance Factors (RFs) in vivo [12]: 3.7 | Resistance Factors (RFs) in vitro [13]: 3.6 | Resistance Factors (RFs) in vitro [14]: 18.2 | Resistance Factors (RFs) in vitro (SDH C_A84V (strain Flu4)): 3.1 | Resistance Factors (RFs) in vitro [15]: 95.0 | Resistance Factors (RFs) in vitro [16]: 35.3 | Resistance Factors (RFs) in vitro (SDH C_V88D (strain Ol50)): 140.4 | Resistance Factors (RFs) in vitro [17]: 583.2 | Minimal selective concentration (MSC) [18]: Isopyrazam 3 µM (MSC)
